Measurements: ChEMBL document CHEMBL4673385, “Discovery of Potent Inhibitors of Streptococcus mutans Biofilm with Antivirulence Activity” (ACS Med Chem Lett, 2021)
The source made the active and inactive calls. No cut-off for these calls is given here.

Assays:
Streptococcus mutans [1] = experiment: Antibiofilm activity against Streptococcus mutans UA159 assessed as inhibition of biofilm formation by serial dilution method; assay type: functional, organism-based; settings: Streptococcus mutans, UA159; read-out: IC50
[2] = molecular target: T1, Glucosyltransferase-SI (Streptococcus mutans serotype c (strain ATCC 700610 / UA159)) (UniProt P13470); experiment: Inhibition of GtfC in Streptococcus mutans UA159 assessed as reduction in glucans level by Coomassie blue dye based SDS-PAGE analysis
T1 sequence (whole entry): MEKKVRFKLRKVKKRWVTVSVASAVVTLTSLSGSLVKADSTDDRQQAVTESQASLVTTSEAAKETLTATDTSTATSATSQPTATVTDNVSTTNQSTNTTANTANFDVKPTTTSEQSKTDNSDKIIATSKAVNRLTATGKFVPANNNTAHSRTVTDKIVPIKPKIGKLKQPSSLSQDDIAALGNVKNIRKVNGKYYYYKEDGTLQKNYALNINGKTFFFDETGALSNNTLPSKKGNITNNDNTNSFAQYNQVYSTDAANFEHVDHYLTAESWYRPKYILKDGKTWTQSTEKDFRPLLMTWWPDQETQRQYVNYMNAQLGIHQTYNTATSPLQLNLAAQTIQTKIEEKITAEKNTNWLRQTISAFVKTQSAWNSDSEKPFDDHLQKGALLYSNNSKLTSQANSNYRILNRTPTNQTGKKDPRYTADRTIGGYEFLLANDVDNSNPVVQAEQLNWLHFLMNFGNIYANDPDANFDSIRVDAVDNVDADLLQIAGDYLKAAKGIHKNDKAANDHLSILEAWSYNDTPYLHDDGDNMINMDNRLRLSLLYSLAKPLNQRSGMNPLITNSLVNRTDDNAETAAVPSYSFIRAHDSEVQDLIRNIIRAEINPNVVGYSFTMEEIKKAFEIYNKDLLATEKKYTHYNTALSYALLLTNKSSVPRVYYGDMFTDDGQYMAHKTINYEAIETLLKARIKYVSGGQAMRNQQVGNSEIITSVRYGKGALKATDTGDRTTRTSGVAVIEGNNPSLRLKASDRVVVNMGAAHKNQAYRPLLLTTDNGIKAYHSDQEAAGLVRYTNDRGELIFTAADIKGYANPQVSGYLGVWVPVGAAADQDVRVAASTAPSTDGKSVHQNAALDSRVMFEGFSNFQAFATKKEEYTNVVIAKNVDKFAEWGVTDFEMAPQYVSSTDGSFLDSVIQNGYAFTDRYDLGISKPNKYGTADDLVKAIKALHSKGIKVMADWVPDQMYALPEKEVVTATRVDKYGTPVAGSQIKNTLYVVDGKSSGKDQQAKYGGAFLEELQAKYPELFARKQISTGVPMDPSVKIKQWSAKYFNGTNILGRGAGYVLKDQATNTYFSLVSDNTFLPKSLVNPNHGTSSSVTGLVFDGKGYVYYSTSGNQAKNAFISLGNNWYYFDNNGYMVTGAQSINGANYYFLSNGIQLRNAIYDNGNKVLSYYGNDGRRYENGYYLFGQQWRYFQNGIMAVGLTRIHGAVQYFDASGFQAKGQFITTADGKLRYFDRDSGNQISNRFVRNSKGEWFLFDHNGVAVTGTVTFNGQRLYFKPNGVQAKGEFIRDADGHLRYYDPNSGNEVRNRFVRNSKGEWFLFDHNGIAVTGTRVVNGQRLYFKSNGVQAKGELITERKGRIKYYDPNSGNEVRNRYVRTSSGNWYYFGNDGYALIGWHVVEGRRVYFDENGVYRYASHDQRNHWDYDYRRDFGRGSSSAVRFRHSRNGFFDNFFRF

Streptococcus mutans [3] = experiment: Antibiofilm activity against Streptococcus mutans UA159 infected in Fischer 344 rat assessed as sulcal score at 100 uM topically administered measured after 43 days; assay type: functional, organism-based; settings: time 43.0 day
Streptococcus mutans [4] = experiment: Antibiofilm activity against Streptococcus mutans UA159 infected in Fischer 344 rat assessed as buccal score at 100 uM topically administered measured after 43 days; assay type: functional, organism-based; settings: time 43.0 day
Streptococcus mutans [5] = experiment: Antibiofilm activity against Streptococcus mutans UA159 infected in Fischer 344 rat assessed as proximal surface score at 100 uM topically administered measured after 43 days; assay type: functional, organism-based; settings: time 43.0 day
Streptococcus gordonii = experiment: Bactericidal activity against Streptococcus gordonii DL1 assessed as reduction in bacterial growth at 100 uM after 24 hrs; assay type: functional
[6] = Toxicity in Fischer 344 rat infected with Streptococcus mutans UA159 assessed as reduction in body weight at 100 uM topically administered measured after 43 days; settings: in vivo, topical_or_ocular, 1032 h, time 43 day
Streptococcus mutans [7] = experiment: Antibiofilm activity against Streptococcus mutans UA159 infected in Fischer 344 rat assessed as reduction in colony forming units at 100 uM topically administered measured after 43 days; assay type: functional, organism-based; settings: time 43.0 day
Streptococcus sanguinis = experiment: Bactericidal activity against Streptococcus sanguinis SK36 assessed as reduction in bacterial growth at 100 uM after 24 hrs; assay type: functional
[8] = Inhibition of Gtf in Streptococcus mutans UA159 assessed as reduction in glucans level by Coomassie blue dye based SDS-PAGE analysis

SMILES | IC50 (Streptococcus mutans [1]) [µM] | inhibition [2] | IC50 [8] [µM] | Activity (Streptococcus mutans [3]) | Activity (Streptococcus mutans [4]) | Activity (Streptococcus mutans [5]) | Activity (Streptococcus gordonii) | Activity [6] | Activity (Streptococcus mutans [7]) | Activity (Streptococcus sanguinis)
COC(=O)c1ccc(NC(=O)c2cc3cc([N+](=O)[O-])ccc3s2)cc1 | 9.6 | Active |  |  |  |  |  |  |  | 
NC(=O)c1ccccc1NC(=O)c1cc2cc([N+](=O)[O-])ccc2s1 | 16.7 | Active | 10 | Active | Active | Active | inactive |  | inactive | inactive
O=C(c1ccc(F)cc1)c1ccc(-c2[nH]c(-c3ccc([N+](=O)[O-])cc3O)nc2-c2ccccc2)cc1 |  | Active |  |  |  |  |  |  |  | 

Now from value to compound, other results behind:

IC50 (Streptococcus mutans [1]) [µM] | inhibition [2] | IC50 [8] [µM] | SMILES | Activity (Streptococcus mutans [3]) | Activity (Streptococcus mutans [4]) | Activity (Streptococcus mutans [5]) | Activity (Streptococcus gordonii) | Activity [6] | Activity (Streptococcus mutans [7]) | Activity (Streptococcus sanguinis)
8.6 | Active |  | NC(=O)c1cccc(NC(=O)c2cnc3ccccc3c2)c1 |  |  |  |  |  |  | 
52.8 | Active |  | CC(C)(C)OC(=O)NCc1ccccc1NC(=O)c1cnc2ccccc2c1 |  |  |  |  |  |  | 
51.5 | Active |  | CC(C)(C)OC(=O)NCc1ccccc1NC(=O)c1cc2cc([N+](=O)[O-])ccc2s1 |  |  |  |  |  |  | 
15.3 | Active |  | NC(=O)c1ccccc1NC(=O)c1cnc2ccccc2c1 | Active | Active | Active | inactive | Non-Toxic | inactive | inactive
